The values that follow come from patent publication US7829563B2, “Aminoamides as orexin antagonists” (Hoffmann-La Roche Inc., priority 2007, dated 2010).

The structures appear in SMILES notation.

In the experiment the target is T1, human orexin-2 (hOX2) receptors (Homo sapiens, UniProt O43614).
T1 construct: expressed in transfected cells
T1 sequence (O43614 1-444): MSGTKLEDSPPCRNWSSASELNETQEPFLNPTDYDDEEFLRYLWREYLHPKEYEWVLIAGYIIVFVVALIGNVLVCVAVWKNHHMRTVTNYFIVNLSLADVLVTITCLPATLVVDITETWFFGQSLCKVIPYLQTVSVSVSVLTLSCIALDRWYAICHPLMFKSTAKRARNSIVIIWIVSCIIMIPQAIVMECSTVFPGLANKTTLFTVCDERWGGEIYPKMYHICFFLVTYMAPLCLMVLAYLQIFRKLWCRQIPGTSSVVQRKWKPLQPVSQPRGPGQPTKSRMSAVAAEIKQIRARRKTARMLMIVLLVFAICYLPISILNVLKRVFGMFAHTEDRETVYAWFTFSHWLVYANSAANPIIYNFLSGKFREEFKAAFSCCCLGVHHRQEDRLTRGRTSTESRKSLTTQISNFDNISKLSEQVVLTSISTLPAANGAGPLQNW
As to the kind of experiment: Intracellular Ca2+ mobilization assay (FLIPR), antagonism of orexin-A. The experiment is classed as cell-based. Conditions: CHO(dHFr−) cells stably expressing hOX2; orexin-A at EC80 as agonist; Kb=IC50/(1+[A]/EC50); read-out: Kb (μM) OX2R (human). As to the method: R^7 and R^8 in scheme 5 are hydrogen, and the other substituents are as described above The compounds were investigated in accordance with the test given hereinafter. Intracellular Ca^2+ Mobilization Assay
The Chinese Hamster Ovary (dHFr−) mutant cell line stably expressing human orexin-1 (hOX1) or human orexin-2 (hOX2) receptors were maintained in Dulbecco's Modified Eagle Medium (1×) with GlutaMax™ 1, 4500 mg/L D-Glucose and Sodium Pyruvate (Catalog No. 31966-021, Invitrogen, Carlsbad, Calif.), 5% dialyzed fetal calf serum (Catalog No. 26400-044), 100 μg/ml penicillin and 100 μg/ml streptomycin. The cells were seeded at 5×10^4 cells/well in the poly-D-lysine treated, 96-well, black/clear-bottomed plates (Catalog No. BD356640, BD Biosciences, Palo Alto, Calif.). 24 h later, the cells were loaded for 1 h at 37° C. with 4 μM Flou-4 acetoxymethyl ester (Catalog No. F-14202, Molecular Probes, Eugene, Oreg.) in FLIPR buffer (1×HBSS, 20 mM HEPES, 2.5 mM Probenecid). Hanks' Balanced Salt Solution (HBSS) (10×) (catalog No. 14065-049) and HEPES (1M) (catalog No. 15630-056) were purchased from Invitrogen, Carlsbad, Calif. Probenecid (250 mM) (catalog No. P8761) was from Sigma, Buchs, Switzerland. The cells were washed five times with FLIPR buffer to remove excess dye and intracellular calcium mobilization, [Ca^2+]i were measured using a Fluorometric Imaging Plate Reader (FLIPR-96, Molecular Devices, Menlo Park, Calif.) as described previously (Malherbe et al., Mol. Pharmacol., 64, 823-832, 2003). Orexin A (catalog No. 1455, Toris Cookson Ltd, Bristol, UK) was used as agonist. Orexin A ([…] stock solution in DMSO) was diluted in FLIPR buffer+0.1% BSA. The EC50 and EC80 values of orexin-A were measured daily from standard agonist concentration-response curves in CHO(dHFr−)-OX1R and —OX2R cell lines. All compounds were dissolved in 100% DMSO. Inhibition curves were determined by addition of 11 concentrations (0.0001-10 μM) of inhibitory compounds and using EC80 value of orexin-A as agonist (a concentration which gave 80% of max agonist response, determined daily). The antagonists were applied 25 min (incubation at 37° C.) before the application of the agonist. Responses were measured as peak increase in fluorescence minus basal, normalized to the maximal stimulatory effect induced by EC80 value of orexin-A or orexin-B. Inhibition curves were fitted according to the Hill equation: y=100/(1+(x/IC50)^nH), where nH=slope factor using Excel-fit 4 software (Microsoft). Kb values were calculated according to the following equation Kb=IC50/(1+[A]/EC50) where A is the concentration of agonist added which is very close to agonist EC80 value, and IC50 and EC50 values were derived from the antagonist inhibition and orexin-A or B agonist curves, respectively.
On to `CNC(=O)[C@H](N[C@@H](CCc1cnc(Cl)cn1)c1ccc(OC(F)F)c(OC(F)F)c1)c1ccccc1` (racemic) [Example 297, (S,R)-2-[(R,S)-1-(3,4-Bis-difluoromethoxy-phenyl)-3-(5-chloro-pyrazin-2-yl)-propylamino]-N-methyl-2-phenyl-acetamide], for which the Kb was determined as 0.0153 µM. Regarding `CNC(=O)[C@H](N[C@H](CCc1ccc(C(F)(F)F)cc1)c1cc(C)on1)c1ccccc1` (racemic) [Example 301, (S,R)—N-Methyl-2-[(S,R)-1-(5-methyl-isoxazol-3-yl)-3-(4-trifluoromethyl-phenyl)-propylamino]-2-phenyl-acetamide], the Kb is 0.0116 µM. As for `CNC(=O)[C@H](N[C@@H](CCc1ccc(C(F)(F)F)cc1)c1cc(C)on1)c1ccccc1` (racemic) [Example 302, (S,R)—N-Methyl-2-[(R,S)-1-(5-methyl-isoxazol-3-yl)-3-(4-trifluoromethyl-phenyl)-propylamino]-2-phenyl-acetamide], the Kb is 0.0161 µM. As for `CNC(=O)[C@H](N[C@@H](CCc1ccc(Cl)cn1)c1ccc(OC(F)F)c(OC(F)F)c1)c1ccccc1` (racemic) [Example 306, (S,R)-2-[(R,S)-1-(3,4-Bis-difluoromethoxy-phenyl)-3-(5-chloro-pyridin-2-yl)-propylamino]-N-methyl-2-phenyl-acetamide], the figure is 0.0063 µM; as for `CNC(=O)[C@H](N[C@@H](CCc1ccc(Cl)cc1)c1ccc(OC)c(OC)c1)c1ccc(Cl)cc1` (racemic) [Example 319, (R,S)-2-(4-Chloro-phenyl)-2-[(S,R)-3-(4-chloro-phenyl)-1-(3,4-dimethoxy-phenyl)-propylamino]-N-methyl-acetamide], 0.0086 µM.

With `CNC(=O)[C@H](N[C@H](CCc1cccc(C(F)(F)F)c1)c1ccc(OC)c(OC)c1)c1ccccc1` (racemic) [Example 320, (R,S)-2-[(R,S)-1-(3,4-Dimethoxy-phenyl)-3-(3-trifluoromethyl-phenyl)-propylamino]-N-methyl-2-phenyl-acetamide], the Kb turned out to be 0.0021 µM. Take `CNC(=O)[C@H](N[C@@H](CCc1cccc(C(F)(F)F)c1)c1ccc(OC)c(OC)c1)c1ccccc1` (racemic) [Example 321, (R,S)-2-[(S,R)-1-(3,4-Dimethoxy-phenyl)-3-(3-trifluoromethyl-phenyl)-propylamino]-N-methyl-2-phenyl-acetamide]: the Kb was 0.0028 µM. To `CNC(=O)[C@H](N[C@@H](CCc1ccc(C(F)(F)F)nc1)c1ccc(F)c(C)c1)c1ccc(C)cc1` (racemic) [Example 334, (R,S)-2-[(S,R)-1-(4-Fluoro-3-methyl-phenyl)-3-(6-trifluoromethyl-pyridin-3-yl)-propylamino]-N-methyl-2-p-tolyl-acetamide] belongs 0.01 µM; to `CCNC(=O)[C@H](N[C@@H](CCc1ccc(C(F)(F)F)nc1)c1ccc(F)c(C)c1)c1ccccc1` (racemic) [Example 340, (R,S)—N-Ethyl-2-[(S,R)-1-(4-fluoro-3-methyl-phenyl)-3-(6-trifluoromethyl-pyridin-3-yl)-propylamino]-2-phenyl-acetamide], 0.0178 µM; to `CNC(=O)[C@H](N[C@@H](CCc1ccc(C(F)(F)F)nc1)c1ccc(F)c(C)c1)c1ccc(OC)cc1` (racemic) [Example 350, (R,S)-2-[(S,R)-1-(4-fluoro-3-methyl-phenyl)-3-(6-trifluoromethyl-pyridin-3-yl)-propylamino]-2-(4-methoxy-phenyl)-N-methyl-acetamide], 0.0164 µM. To `Cc1cc([C@H](CCc2ccc(C(F)(F)F)nc2)N[C@@H](C(=O)NCCO)c2ccccc2)ccc1F` (racemic) [Example 356, (R,S)-2-[(S,R)-1-(4-Fluoro-3-methyl-phenyl)-3-(6-trifluoromethyl-pyridin-3-yl)-propylamino]-N-(2-hydroxy-ethyl)-2-phenyl-acetamide] belongs 0.0044 µM; to `CNC(=O)[C@H](N[C@@H](CCc1ccc(C)cc1)c1ccc(F)c(C)c1)c1ccccc1` (racemic) [Example 365, (R,S)-2-[(S,R)-1-(4-Fluoro-3-methyl-phenyl)-3-p-tolyl-propylamino]-N-methyl-2-phenyl-acetamide], 0.0124 µM. Take `CNC(=O)[C@H](NC(CCc1ccc(C(F)(F)F)cc1)c1ccc(OC)c(OC)c1)c1ccccc1` (single isomer, unassigned) [Example 6, (R)-2-[(S or R)-1-(3,4-Dimethoxy-phenyl)-3-(4-trifluoromethyl-phenyl)-propylamino]-N-methyl-2-phenyl-acetamide]: the Kb turned out to be 0.0017 µM. To `CNC(=O)[C@H](NC(CCc1ccc(C(F)(F)F)cc1)c1ccc(OC)c(OC)c1)c1ccccc1` (single isomer, unassigned) [Example 7, (R)-2-[(S or R)-1-(3,4-Dimethoxy-phenyl)-3-(4-trifluoromethyl-phenyl)-propylamino]-N-methyl-2-phenyl-acetamide] belongs 0.0142 µM. To `CCNC(=O)[C@H](NC(CCc1ccc(C(F)(F)F)cc1)c1ccc(OC)c(OC)c1)c1ccccc1` (single isomer, unassigned) [Example 13, (R)-2-[(R or S)-1-(3,4-Dimethoxy-phenyl)-3-(4-trifluoromethyl-phenyl)-propylamino]-N-ethyl-2-phenyl-acetamide] belongs 0.0026 µM. As for `COc1ccc(C(CCc2ccc(C(F)(F)F)cc2)N[C@@H](C(=O)NCC2CC2)c2ccccc2)cc1OC` (single isomer, unassigned) [Example 16, (R)-N-Cyclopropylmethyl-2-[(R or S)-1-(3,4-dimethoxy-phenyl)-3-(4-trifluoromethyl-phenyl)-propylamino]-2-phenyl-acetamide], the figure is 0.0142 µM; as for `CNC(=O)[C@@](C)(N[C@@H](CCc1ccc(C(F)(F)F)cc1)c1ccc(OC)c(OC)c1)c1ccccc1` (single isomer, unassigned) [Example 29], 0.0184 µM. For the molecule `CNC(=O)[C@H](N[C@@H](CCc1ccc(Cl)cc1)c1ccc(OC)c(OC)c1)c1ccccc1` (single isomer, unassigned) [Example 140], the Kb turned out to be 0.0014 µM. To `CNC(=O)[C@H](N[C@@H](CCc1ccc(F)cc1)c1ccc(OC)c(OC)c1)c1ccccc1` (single isomer, unassigned) [Example 144] belongs 0.0097 µM; to `CNC(=O)[C@H](N[C@@H](CCc1ccccc1)c1ccc(OC)c(OC)c1)c1ccccc1` (single isomer, unassigned) [Example 314], 0.0067 µM; to `CNC(=O)C(NC(CCc1ccc(C(F)(F)F)cc1)c1sc(C)nc1C)c1ccc(F)cc1` (centres unmarked) [Example 80, 2-[1-(2,4-Dimethyl-thiazol-5-yl)-3-(4-trifluoromethyl-phenyl)-propylamino]-2-(4-fluoro-phenyl)-N-methyl-acetamide], 0.0192 µM. For `CNC(=O)C(NC(CCc1ccc(C(F)(F)F)cc1)c1cc(C(C)C)no1)c1ccccc1` (centres unmarked) [Example 92, 2-[1-(3-Isopropyl-isoxazol-5-yl)-3-(4-trifluoromethyl-phenyl)-propylamino]-N-methyl-2-phenyl-acetamide], the Kb was 0.007 µM. Consider `CNC(=O)C(NC(CCc1ccc(C(F)(F)F)cc1)c1sc(C)nc1C)c1ccccc1` (centres unmarked) [Example 93, 2-[1-(2,4-Dimethyl-thiazol-5-yl)-3-(4-trifluoromethyl-phenyl)-propylamino]-N-methyl-2-phenyl-acetamide], for which the Kb is 0.017 µM.
